Experimental data taken from patent US20100048727A1, “PERFLUOROKETONE COMPOUNDS AND USES THEREOF” (priority 2007, published 2010).
Entries after “also recorded” stand apart in the source; their conditions may differ.

Legend:
human GIVA cPLA2 = biological target: T1, human GIVA cPLA2 (Homo sapiens, UniProt P47712); experiment: GIVA cPLA2 specific mixed micelle assay; format: biochemical; details: 0.091 mole fraction
T1 sequence (P47712 1-749): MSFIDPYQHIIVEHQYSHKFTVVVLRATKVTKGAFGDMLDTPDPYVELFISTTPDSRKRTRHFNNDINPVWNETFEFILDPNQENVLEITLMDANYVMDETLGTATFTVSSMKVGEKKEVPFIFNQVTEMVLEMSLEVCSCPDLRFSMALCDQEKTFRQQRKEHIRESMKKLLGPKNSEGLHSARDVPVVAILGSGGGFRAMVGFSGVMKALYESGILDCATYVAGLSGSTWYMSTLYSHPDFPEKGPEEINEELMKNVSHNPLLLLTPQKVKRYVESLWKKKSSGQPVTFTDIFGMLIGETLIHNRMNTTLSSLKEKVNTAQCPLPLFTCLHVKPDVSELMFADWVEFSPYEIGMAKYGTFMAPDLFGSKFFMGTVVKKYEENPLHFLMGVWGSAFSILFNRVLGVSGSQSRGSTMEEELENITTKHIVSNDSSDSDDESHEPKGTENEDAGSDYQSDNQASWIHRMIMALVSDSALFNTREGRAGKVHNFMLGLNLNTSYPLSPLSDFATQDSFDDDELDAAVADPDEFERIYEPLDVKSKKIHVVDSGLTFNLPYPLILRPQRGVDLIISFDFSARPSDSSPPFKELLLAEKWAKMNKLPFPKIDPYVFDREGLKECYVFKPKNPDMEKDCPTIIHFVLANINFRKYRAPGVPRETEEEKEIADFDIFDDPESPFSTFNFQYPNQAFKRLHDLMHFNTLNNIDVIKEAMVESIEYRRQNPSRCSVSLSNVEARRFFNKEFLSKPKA
Experimental: Inhibition of phospholipase A2 by perfluoroketone compounds. […] (2002) J. Med. Chem. 45: 2891-2893; Kokotos, G. et al. (2004). J. Med. Chem. 47: 3615-3628). The standard GVIA iPLA2 activity assay utilizes DPPC/Triton™ X-100 mixed micelles at a ratio of 1:4 as previously described (Stephens D. et al. (2006). J. Med. Chem., 49: 2821-2828). GV sPLA2 activity was measured in an assay similar to the assays for GIVA cPLA2 and GVIA iPLA2.

[1] = system: spinal cord contusion injury (SCI) mice; experiment: Spinal cord contusion injury in mice: BMS locomotor recovery and histology; format: in vivo
Experimental: Spinal cord contusion and drug administration. All surgical procedures were approved by the McGill University Animal Care Committee and followed the guidelines of the Canadian Council on Animal Care. Adult (8-10 weeks old) female BALB/c (Charles River Canada), cPLA2 IVA^−/− and wild type littermates mice, were anesthetized with ketamine:xylazine:acepromazine (50:5:1 mg/kg). After performing a laminectomy at the 11th thoracic vertebrae, the exposed spinal cord was contused using the Infinite Horizons Impactor™ device (Precision Scientific Instrumentation, Lexington, Ky.). Moderate injuries were made using a force of 50 kDynes, and only animals that had tissue displacement ranged between 400-600 μm were used (Ghasemblou et al. (2005). Exp Neurol. 196(1): 9-17).
PLA2 inhibitor treatment. Mice were given daily intraperitoneal injections of 2 mM fluoroketone (iPLA2 inhibitor; FKGK11) in 200 μl (6.85 mg/kg), starting 1 h after contusion and for 14 days. The control group that also had SCI were treated daily with vehicle.
Functional assessment. Locomotor recovery was evaluated in an open-field test using the Basso Mouse Scale (BMS) (Basso D. M. et al., (2006). J Neurotrauma. 23(5): 635-59). The BMS analysis of hindlimb movements and coordination was carried out by two independent assessors and the consensus score taken. The final score is presented as mean±SEM.
Histology. Mice were perfused with 4% paraformaldehyde in 0.1M phosphate buffer (PB) at 1, 3, 7, 14 and 28 days post-lesion. 5 mm length of the spinal cord containing the lesion site was removed, cryoprotected with 30% sucrose in 0.1M PB, and cut in serial sections (16 μm thick). For double immunoflorescence, sections were incubated with antibodies against iPLA2 VIA (Cayman Chemical) combined with antibodies against Mac-1 (for macrophages/microglia, Serotec), GFAP (for astrocytes, Zymed Labs), CC1 (for oligodendrocytes, Calbiochem), NeuN (for neurons, 1:500, Chemicon) and SMI312 (for axons, Covance). Immunfluorescence labeling for 5-hydroxytryptamine (5-HT) (Sigma, Aldreich) was also performed to assess innervation of serotonergic axons caudal to the lesion. In addition, one series of serial sections of the spinal cord were stained with Luxol fast blue (LFB) histochemistry, which stains myelin, and another series stained with cresyl violet histochemistry to quantify neuronal loss.
Quantification of histological results. Histological quantification was performed from spinal cord sections harvested at 28 days post-lesion. Tissue sections were viewed with an Axioskop™ 2 Plus microscope (Zeiss) and images captured using a Qlmaging Retiga™ 1300 camera, and quantification done using BioQuant™ Nova Prime image analysis system (BioQuant Image Analysis Corp.). Tissue and myelin sparing was calculated by delineating the GFAP and LFB stained sections. Neuronal survival was assessed by counting the neuron profiles in the ventral horn of the spinal cord in tissue sections stained with cresyl violet. Assessment of serotonergic innervation was performed by calculating the area occupied by serotoninergic axons in the lateral funiculi and ventral horns of spinal cord sections taken at a distance of 1000 μm caudal to the lesion site.
Statistical analyses (spinal cord injury experiments, Examples 19-20). Data are shown as mean±s.e.m. RT-PCR and Western blot analyses were done using one-way ANOVA with post-hoc Dunnett's test. Statistical analyses of the functional and histological assessments were performed using two-way repeated measures ANOVA with post-hoc Tukey's test for multiple comparisons. Differences were considered significant at p<0.05.

O=C(CCCCc1ccccc1)C(F)(F)C(F)(F)F [FKGK11, 1,1,1,2,2-Pentafluoro-7-phenyl-3-heptanone]
Average percent inhibition GIVA cPLA2 (class symbol) (human GIVA cPLA2): N.D. (N.D. means compounds with less than 25% inhibition (or no detectable inhibition)) | main BMS scores (locomotor recovery) ([1]; 6.85 mg/kg i.p. daily for 14 days from 1 h after contusion, vs vehicle): did not reach statistical significance; also recorded: No significant differences | BMS subscores (fine locomotor coordination and control) ([1]; 6.85 mg/kg i.p. daily for 14 days, 28 days after SCI, vs vehicle): significant improvement; also recorded: significantly better BMS subscores | sparing of serotonergic fibers in the lateral funiculi ([1]; 1000 μm caudal to the epicenter, 28 days after SCI): significantly greater sparing of serotonergic fibers | increase in serotonergic (5-HT) fibers in the lateral white matter ([1]; 1000 μm caudal to the epicenter, 28 days after SCI, compared to vehicle-treated SCI controls): ~40% | neuronal survival in the ventral horn ([1]; 28 days after SCI, vs vehicle): little if any effect; also recorded: No significant differences | tissue sparing ([1]; epicenter and adjacent areas, 28 days after SCI, vs vehicle): significantly greater tissue sparing; also recorded: greater amount of tissue sparing | myelin sparing (Luxol fast blue) ([1]; regions near the epicenter, 28 days after SCI, vs vehicle): significant enhancement of myelin sparing; also recorded: greater sparing of myelin
